This passage reports IC50 and inhibition results from US9302998B2, “Aryl triazole compounds with antitumoural activity” (SIGMA-TAU RESEARCH SWITZERLAND S.A., priority 2010, dated 2016).

In one experiment the target is T1, Hsp90 (Homo sapiens, UniProt P07900).
T1 construct: purchased Stressgen SPP-776
As to the kind of experiment: Fluorescence Polarization (FP) binding, GM-BODIPY displacement from Hsp90. Particulars: GM-BODIPY tracer, 4° C. for 4 hours. As for the experimental part:
GM-BODIPY (PerkinElmer, CUSN60342000MG) was previously dissolved in DMSO to obtain 10 mM stock solutions and kept at −20° C. until use.
Hsp90 (Stressgen, SPP-776), was previously dissolved in assay buffer (HFB) to form 2.2 μM stock solutions and kept at −80° C. until use.
The compounds were previously dissolved in DMSO to obtain stock solutions and kept at −20° C. The day of experiment, the compounds were prepared by serial dilutions in assay buffer (HFB) containing 20 mM HEPES (K) pH 7.3, 50 mM KCl, 5 mM MgCl2, 20 mM Na2MoO4 and 0.01% NP40. Before each use, 0.1 mg/ml Bovine Gamma globulin and 2 mM DTT were freshly added.
Fluorescence Polarization (FP) was performed in Opti-Plate™-96F well plates (Perkin Elmer, Zaventem, Belgium) using a plate reader (Wallac Envision 2101 multilabel reader, Perkin Elmer, Zaventem, Belgium). To evaluate the binding affinity of the molecules, 50 μl of the GM-BODIPY solution (100 nM) were added to 125 nM of Hsp90 in the presence of 5 μl of the test compounds at increasing concentrations. The plate was mixed on a shaker at 4° C. for 4 hours, and the FP values in mP (millipolarization units) were recorded. The IC50 values were calculated as the inhibitor concentration where 50% of the tracer is displaced; each data point is the result of the average of triplicate wells, and was determined from a plot using nonlinear least-squares analysis. Curve fitting was performed using
Prism GraphPad software program (GraphPad software, Inc., San Diego, Calif.).
In general terms: Polarisation of emitted light reports the rotation of a fluorescent probe.

For experiment [1], the system named is NCI-H460 non-small cell lung carcinoma. As to the kind of experiment: Cytotoxicity assay, sulphorodamine B test, NCI-H460. It is filed as cell-based. Particulars: Homo sapiens, NCI-H460; 72 h, sulphorodamine B. How it is done: (§1) The antiproliferative activity of novel Hsp90 inhibitors was also evaluated on various cancerous cell lines by means of the sulphorodamine B test (i.e., NCI-H460 non-small cell lung carcinoma, A431 epidermoid, A2780 ovarian, MDA-MB436 triple-negative breast, U87MG glioblastoma, A498 renal, HCT116 colon, MeWo melanoma, MiaPaCa2 pancreas, HeLa cervix uteri, NB4 promyelocytic leukemia). NCI-H460, A431, MDA-MB436, A2780, A498, HeLa, NB4 tumour cells were grown in RPMI 1640 containing 10% fetal bovine serum (i.e., FBS from GIBCO), L-glutamine, and 50 μg/ml gentamycin sulfate.
(§2) All cell lines were maintained in a 37° C. incubator with saturated humidity and an atmosphere containing 95% air and 5% CO2, and were sub-cultured every 2-3 days. Tumour cells were seeded in 96-well tissue culture plates at approximately 10% confluence and were allowed to attach and recover for 24 h.
(§3) Varying concentrations of the drugs were then added to each well to calculate their IC50 value (the concentration which inhibits the 50% of cell survival). The plates were incubated at 37° C. for 72 h. At the end of the treatment, the plates were washed by remotion of the supernatant and addition of PBS 3 times. 200 μl PBS and 50 μl of cold 80% trichloroacetic acid (TCA) were added. The plates were incubated on ice for at least 1 h. TCA was removed, the plates were washed 3 times by immersion in distilled-water and dried on paper and at 40° C. for […]. Then 200 μl of 0.4% sulphorodamine B in 1% acetic acid were added. The plates were incubated at room temperature for 30 min. Sulphorodamine B was removed, the plates were washed by immersion in 1% acetic acid for 3 times, then they were dried on paper and at 40° C. for 5 min. Then, 200 μl Tris 10 mM were added, the plates were kept under stirring for 20 min. The cell survival was determined as optical density by a Multiskan […] at 540 nm. The amount of cells killed was calculated as the percentage decrease in sulphorodamine B binding compared with control cultures.

The test system of a further experiment is A431 epidermoid. As to the kind of experiment: Sulphorodamine B test at single concentration, A431. It is filed as cell-based. Particulars: Homo sapiens, A-431; 500 nM, 72 h. As for the experimental part: as §1, §2, §3
(§4) The other cell lines were screened against one single concentration of the various inhibitors (i.e., 500 nM), all experiments being made in octuplicate, following the protocol described at example 35. Since NB4 cell line was grown in suspension, a further step of centrifugation (i.e., 1600 g for 10 min) was added after the 72 hour incubation period.

In a further experiment the test system is A2780 ovarian. As to the kind of experiment: Sulphorodamine B test at single concentration, A2780. Particulars: Homo sapiens, 500 nM, 72 h. The class given is cell-based. As for the experimental part: as §1, §2, §3, §4
The subject of experiment [2] is MDA-MB436 triple-negative breast. As to the kind of experiment: Sulphorodamine B test at single concentration, MDA-MB436. It is filed as cell-based. Conditions: Homo sapiens, MDA-MB-436; 500 nM, 72 h. As for the experimental part: as §1, §2, §3, §4
For the next experiment, the system named is U87MG glioblastoma. As to the kind of experiment: Sulphorodamine B test at single concentration, U87MG. The class given is cell-based. Conditions: Homo sapiens, U-87 MG; 500 nM, 72 h. How it is done:
as §1
(§5) MeWo and U87-MG cells were cultured in Eagle's Minimum Essential Medium (i.e., EMEM) containing 10% FBS, L-glutamine, 1 mM sodium pyruvate, 0.1 mM non-essential amino acids, 1.5 g/l sodium bicarbonate, and 50 μg/ml gentamycin sulphate.
as §2, §3, §4

In the next experiment the test system is HCT116 colon. As to the kind of experiment: Sulphorodamine B test at single concentration, HCT116. It is filed as cell-based. Conditions: Homo sapiens, HCT-116; 500 nM, 72 h. As for the experimental part: as §1
HCT116 cells were cultured in McCoy's medium containing 10% FBS, L-glutamine, and 50 μg/ml gentamycin sulfate.
as §2, §3, §4

Another experiment has as its system MeWo melanoma. As to the kind of experiment: Sulphorodamine B test at single concentration, MeWo. The class given is cell-based. Particulars: Homo sapiens, 500 nM, 72 h. How it is done:
as §1, §5, §2, §3, §4

The test system of a further experiment is MiaPaCa2 pancreas. As to the kind of experiment: Sulphorodamine B test at single concentration, MiaPaCa2. The class given is cell-based. Particulars: Homo sapiens, MIA PaCa-2; 500 nM, 72 h. As for the experimental part: as §1
MiaPaCa2 cells were cultured in DMEM medium containing 10% FBS, L-glutamine, and 50 μg/ml gentamycin sulfate.
as §2, §3, §4

The subject of the next experiment is A498 renal. As to the kind of experiment: Sulphorodamine B test at single concentration, A498. The class given is cell-based. Conditions: Homo sapiens, 500 nM, 72 h. As for the experimental part: as §1, §2, §3, §4
For experiment [3], the system named is NB4 promyelocytic leukemia. As to the kind of experiment: Sulphorodamine B test at single concentration, NB4. The class given is cell-based. Conditions: 500 nM, 72 h, suspension cells. As for the experimental part:
as §1, §2, §3, §4

In a further experiment the test system is HeLa cervix uteri. As to the kind of experiment: Sulphorodamine B test at single concentration, HeLa. Conditions: Homo sapiens, 500 nM, 72 h. The class given is cell-based. As for the experimental part:
as §1, §2, §3, §4

By IC50 is commonly meant the point on the concentration scale where inhibition reaches its midpoint. Consider `CC(C)c1cc(-n2nncc2-c2ccc(CN3CCN(c4ccccc4)CC3)cc2)c(O)cc1O` [Example 4, 4-isopropyl-6-{5-[4-(4-phenyl-piperazin-1-ylmethyl)-phenyl]-[1,2,3]triazol-1-yl}-benzene-1,3-diol], for which the IC50 is < 50 nM at Hsp90 and 500 to 1000 nM in [1].

Broadly, the inhibition is the percentage by which the read-out fell short of the control. A lower inhibition goes with a weak effect. Regarding `CCNC(=O)c1nnn(-c2cc(C(C)C)c(O)cc2O)c1-c1ccc(CNCCN2CCOCC2)cc1` [Example 14, 1-(2,4-dihydroxy-5-isopropyl-phenyl)-5-{4-[(2-morpholin-4-yl-ethylamino)-methyl]-phenyl}-1H-[1,2,3]triazole-4-carboxylic acid ethylamide], the IC50 was < 50 nM at Hsp90 and 100 to 500 nM in experiment [1]. The inhibition at 0.5 µM with A431 epidermoid was ≥ 50%; in the experiment with A2780 ovarian it was ≥ 50%; in experiment [2], ≥ 50%; in the experiment on U87MG glioblastoma it was ≥ 50%; in the experiment on HCT116 colon, 30 to 50%; with MeWo melanoma, ≥ 50%. Moreover, the inhibition at 0.5 µM with MiaPaCa2 pancreas is ≥ 50%.

In the case of `CC(C)c1cc(-n2nncc2Nc2ccc(N3CCOCC3)cc2)c(O)cc1O` [Example 23, 4-isopropyl-6-[5-(4-morpholin-4-yl-phenylamino)-[1,2,3]triazol-1-yl]-benzene-1,3-diol], the IC50 at Hsp90 was in the range of 50 to 100 nM.

With `CCNC(=O)c1nnn(-c2cc(C(C)C)c(O)cc2O)c1-c1ccc(CNC2CCN(C)CC2)cc1` [Example 19, 1-(2,4-dihydroxy-5-isopropyl-phenyl)-5-{4-[(1-methyl-piperidin-4-ylamino)-methyl]-phenyl}-1H-[1,2,3]triazole-4-carboxylic acid ethylamide], at Hsp90, the IC50 was < 50 nM.

For the compound `CC(C)c1cc(-n2nnc(C(=O)N3CCOCC3)c2-c2ccc(CN3CCOCC3)cc2)c(O)cc1O` [Example 30, [1-(2,4-dihydroxy-5-isopropyl-phenyl)-5-(4-morpholin-4-ylmethyl-phenyl)-1H-[1,2,3]triazol-4-yl]-morpholin-4-yl-methanone], at Hsp90, the IC50 was 100 to 500 nM.

In the case of `CCNC(=O)c1nnn(-c2cc(C(C)C)c(O)cc2O)c1NCc1ccc(N2CCOCC2)cc1` [Example 26, 1-(2,4-dihydroxy-5-isopropyl-phenyl)-5-(4-morpholin-4-yl-benzylamino)-1H-[1,2,3]triazole-4-carboxylic acid ethylamide], the results for the 50% inhibitory concentration (IC50) (on Hsp90; in [1]) were < 50 nM and 100 to 500 nM, respectively. Further, the inhibition at 0.5 µM was ≥ 50% in the experiment with A2780 ovarian; ≥ 50% with A498 renal; ≥ 50% in the experiment with HCT116 colon; 30 to 50% with MeWo melanoma; ≥ 50% in the experiment on MiaPaCa2 pancreas; 30 to 50% in experiment [3].

With `CC(C)c1cc(-n2nncc2-c2ccc(CN3CCOCC3)cc2)c(O)cc1O` [Example 1], the figures for the IC50 (on Hsp90; in experiment [1]) were < 50 nM and 100 to 500 nM, respectively.

Regarding `CCNC(=O)c1nnn(-c2cc(C(C)C)c(O)cc2O)c1Nc1ccc(N2CCOCC2)cc1` [Example 25, 1-(2,4-dihydroxy-5-isopropyl-phenyl)-5-(4-morpholin-4-yl-phenylamino)-1H-[1,2,3]triazole-4-carboxylic acid ethylamide], the IC50 at Hsp90 fell in the range of 50 to 100 nM; in experiment [1] it was 500 to 1000 nM.

With `CC(C)c1cc(-n2nncc2-c2ccc(CN3CCN(Cc4ccccc4)CC3)cc2)c(O)cc1O` [Example 3, 4-{5-[4-(4-benzyl-piperazin-1-ylmethyl)-phenyl]-[1,2,3]triazol-1-yl}-6-isopropyl-benzene-1,3-diol], the IC50 on Hsp90 was < 50 nM; in experiment [1], 100 to 500 nM. In addition, the inhibition at 0.5 µM with A431 epidermoid was ≥ 50%; with A2780 ovarian it was ≥ 50%; in experiment [2], ≥ 50%; in the experiment with A498 renal it was 30 to 50%; in the experiment on HCT116 colon, ≥ 50%; with MeWo melanoma, ≥ 50%. In addition, the inhibition at 0.5 µM (with MiaPaCa2 pancreas; in the experiment on HeLa cervix uteri; in experiment [3]) was ≥ 50% throughout.

For `CCNC(=O)c1nnn(-c2cc(C(C)C)c(O)cc2O)c1-c1ccc(CN2CCNCC2)cc1` [Example 12, 1-(2,4-dihydroxy-5-isopropyl-phenyl)-5-(4-piperazin-1-ylmethyl-phenyl)-1H-[1,2,3]triazole-4-carboxylic acid ethylamide], the IC50 was < 50 nM at Hsp90 and 100 to 500 nM in experiment [1]. For the same compound, the inhibition at 0.5 µM with A2780 ovarian is ≥ 50%; in [2], ≥ 50%; in the experiment on A498 renal it was 30 to 50%; in the experiment with MiaPaCa2 pancreas, ≥ 50%.

Regarding `CC(C)c1cc(-n2nnc(C(=O)N[C@H](C(=O)O)C(C)C)c2-c2ccc(CN3CCOCC3)cc2)c(O)cc1O` [Example 31, (S)-2-{[1-(2,4-dihydroxy-5-isopropyl-phenyl)-5-(4-morpholin-4-ylmethyl-phenyl)-1H-[1,2,3]triazole-4-carbonyl]-amino}-3-methyl-butyric acid], the IC50 at Hsp90 lay in the range of 100 to 500 nM.

Regarding `CCNC(=O)c1nnn(-c2cc(C(C)C)c(O)cc2O)c1-c1ccc(CNCCCN(CC)CC)cc1` [Example 18, 5-{4-[(3-diethylamino-propylamino)-methyl]-phenyl}-1-(2,4-dihydroxy-5-isopropyl-phenyl)-1H-[1,2,3]triazole-4-carboxylic acid ethylamide], the IC50 at Hsp90 is < 50 nM; in [1], 500 to 1000 nM.

As for `CCNC(=O)c1nnn(-c2cc(C(C)C)c(O)cc2O)c1-c1ccc(CN(CC)CC)cc1` [Example 10, 5-(4-diethylaminomethyl-phenyl)-1-(2,4-dihydroxy-5-isopropyl-phenyl)-1H-[1,2,3]triazole-4-carboxylic acid ethylamide], the IC50 (on Hsp90; in [1]) was < 50 nM each time.

Take `CCNC(=O)c1nnn(-c2cc(C(C)C)c(O)cc2O)c1-c1ccc(CNC2CCCCC2)cc1` [Example 16, 5-(4-cyclohexylaminomethyl-phenyl)-1-(2,4-dihydroxy-5-isopropyl-phenyl)-1H-[1,2,3]triazole-4-carboxylic acid ethylamide]: the concentration for half-maximal inhibition (IC50) (at Hsp90; in experiment [1]) was < 50 nM in each case.

Consider `CC(C)c1cc(-n2nncc2NCc2ccc(N3CCOCC3)cc2)c(O)cc1O` [Example 24, 4-isopropyl-6-[5-(4-morpholin-4-yl-benzylamino)-[1,2,3]triazol-1-yl]-benzene-1,3-diol], for which the IC50 on Hsp90 is 100 to 500 nM.
